Laboratory results reported in patent publication US6783775B2, “Serum-derived factor inducing cell differentiation and medical uses thereof” (Hadasit Medical Research Services and Development Ltd., priority 1996, dated 2004).

Experiments:
[1] = system: HL-60 cells; assay: Cell proliferation assay (3H-thymidine incorporation) on HL-60 cells; format: cell-based, human
Protocol: (§1) Cell lines included the human myelomonocytic cells HL-60, GM-CSF-dependent human myelomonocytic cells LK (established in the inventors' laboratory) and the murine monocytic cell line WEHI. Cell lines were maintained by sub-culturing every 3-4 days at 2.5×10^5 cell/ml in either alpha minimal essential or RPMI-1640 media (GIBCO, Grand Island, N.Y.) supplemented with 10-20% fetal calf serum (FCS) (Bio Labs Jerusalem, Israel). The cultures were incubated at 37° C., in a humidified atmosphere of 5% CO2 in air. The concentration of viable cells was determined by the trypan blue exclusion technique. Total cell count was performed using a Coulter counter.
HL-60 or other cells were cultured at 1.3×10^5/ml in 24-well dish and medium containing 0.5% heat-inactivated FCS and various dilutions of the tested fractions. DNA synthesis was determined on day 4 by incorporation of ^3[H]-thymidine ([…]/150 μl) (5 mCi/mmol, ICN Radiochemicals, Irvine, Calif.) added 12 hrs before harvesting. One unit of SDF was defined as the amount per milliliter required for 50% decrease in ^3H-thymidine incorporation.

[2] = system: normal hemopoietic progenitor cells; assay: Indirect cloning (two-phase culture) of normal hemopoietic progenitors; format: cell-based, human; details: indirect cloning system, control (0) 70
Protocol: Indirect cloning: Cells were prepared as described for direct cloning, were first incubated for several days in liquid culture supplemented with or without the indicated growth factors or tested fraction, then washed. and cloned in semi-solid medium as described above.
Expansion of normal hemopoietic progenitors—In order to test the effect of SDF on early and late normal hemopoietic progenitors a two-phase culture procedure was employed:
Phase 1 (Expansion phase)—Light density BM or PB cells were incubated for several days in liquid medium supplemented with SDF.
Phase 2 (Clonal phase)—At the end of phase 1, cells were harvested, washed and recultured in either semi solid medium or in liquid medium supplemented with either recombinant human late growth/differentiation factors like GM-CSF, Epo, or 5637-CM, which contains GM, G-CSF. IL-6, IL-1 and other cytokines, but not Epo. […] The lineage specific differentiation of the colonies in Phase 2 depended on the late factor present, e.g., Epo for CFU-E and GM-CSF for CFU-GM.

[3] = system: HL-60 cells; assay: Leukemic cell cloning (colony formation) of HL-60 cells in semi-solid medium; format: cell-based, human; details: HL-60 600 cells/ml; 8 days; mean of two experiments; G-CSF 1000 U/ml, IL-1 100 U/ml
Protocol: as §1
(§2) 300-1000 cells/ml were seeded in semi-solid medium composed of 0.83% methyl-cellulose (Fisher Scientific company, Fair Lawn, N.J.) or 0.3% Bacto agar (Difco laboratories, Detroit, Mich.) in alpha medium supplemented with 10% FCS. Colony number was scored with an inverted microscope on day 8. In order to determine cellular maturation, single colonies were picked up with a fine capillary tube, smeared on a glass slide and stained.

[4] = system: WEHI cells; assay: Leukemic cell cloning (colony formation) of WEHI cells in semi-solid medium; format: cell-based, murine; details: WEHI 300 cells/ml; 8 days; mean of two experiments; G-CSF 100 U/ml, IL-1 100 U/ml
Protocol: as §1, §2

Molecule: O=C(O)c1cc(C(=O)O)c2c(n1)C(=O)C(=O)c1cc(C(=O)O)[nH]c1-2 [PQQ, pyrroloquinoline quinone]
- inhibition at 0.01 µg/mL ([1]; Homo sapiens, HL-60, PQQ concentration 0.01 μg/ml, HL60 cells, read-out: Growth inhibition (%)): 0%
- inhibition at 0.05 µg/mL ([1]; Homo sapiens, HL-60, PQQ concentration 0.05 μg/ml, HL60 cells, read-out: Growth inhibition (%)): 30%
- inhibition at 0.1 µg/mL ([1]; Homo sapiens, HL-60, PQQ concentration 0.1 μg/ml, HL60 cells, read-out: Growth inhibition (%)): 30%
- inhibition at 0.5 µg/mL ([1]; Homo sapiens, HL-60, PQQ concentration 0.5 μg/ml, HL60 cells, read-out: Growth inhibition (%)): 40%
- inhibition at 1 µg/mL ([1]; Homo sapiens, HL-60, PQQ concentration 1 μg/ml, HL60 cells, read-out: Growth inhibition (%)): 40%
- inhibition at 5 µg/mL ([1]; Homo sapiens, HL-60, PQQ concentration 5 μg/ml, HL60 cells, read-out: Growth inhibition (%)): 60%
- Colony No. ([2]; PQQ concentration 0.01 μg/ml): 89
- Colony No. ([2]; PQQ concentration 0.1 μg/ml): 109
- Colony No. ([2]; PQQ concentration 1 μg/ml): 130
- Colony No. ([2]; PQQ concentration 5 μg/ml): 148

Molecule: CC1=C(/C=C/C(C)=C/C=C/C(C)=C/C(=O)O)C(C)(C)CCC1 [Retinoic acid]
- Colonies: Diffused (fully differentiated) [3]: 114
- Colonies: Partially diffused (partially differentiated) [3]: 49
- Colonies: Tight (undifferentiated) [3]: 0
- Colonies: Total [3]: 163

B1: G-CSF: growth factor (colony stimulating factor) used for comparison (protein, UniProt P09919 31-207, looked up)
Granulocyte …: TPLGPASSLPQSFLLKCLEQVRKIQGDGAALQEKLVSECATYKLCHPEELVLLGHSLGIPWAPLSSCPSQALQLAGCLSQLHSGLFLYQGLLQALEGISPELGPTLDTLQLDVADFATTIWQQMEELGMAPALQPTQGAMPAFASAFQRRAGGVLVASHLQSFLEVSYRVLRHLAQP
- Colonies: Diffused (fully differentiated) [3]: 0
- Colonies: Partially diffused (partially differentiated) [3]: 12
- Colonies: Tight (undifferentiated) [3]: 325
- Colonies: Total [3]: 337
- Colonies: Diffused (fully differentiated) [4]: 51
- Colonies: Partially diffused (partially differentiated) [4]: 55
- Colonies: Tight (undifferentiated) [4]: 25
- Colonies: Total [4]: 132

B2: ceruloplasmin (protein, UniProt P00450 20-1065, looked up)
Ceruloplasmin: KEKHYYIGIIETTWDYASDHGEKKLISVDTEHSNIYLQNGPDRIGRLYKKALYLQYTDETFRTTIEKPVWLGFLGPIIKAETGDKVYVHLKNLASRPYTFHSHGITYYKEHEGAIYPDNTTDFQRADDKVYPGEQYTYMLLATEEQSPGEGDGNCVTRIYHSHIDAPKDIASGLIGPLIICKKDSLDKEKEKHIDREFVVMFSVVDENFSWYLEDNIKTYCSEPEKVDKDNEDFQESNRMYSVNGYTFGSLPGLSMCAEDRVKWYLFGMGNEVDVHAAFFHGQALTNKNYRIDTINLFPATLFDAYMVAQNPGEWMLSCQNLNHLKAGLQAFFQVQECNKSSSKDNIRGKHVRHYYIAAEEIIWNYAPSGIDIFTKENLTAPGSDSAVFFEQGTTRIGGSYKKLVYREYTDASFTNRKERGPEEEHLGILGPVIWAEVGDTIRVTFHNKGAYPLSIEPIGVRFNKNNEGTYYSPNYNPQSRSVPPSASHVAPTETFTYEWTVPKEVGPTNADPVCLAKMYYSAVEPTKDIFTGLIGPMKICKKGSLHANGRQKDVDKEFYLFPTVFDENESLLLEDNIRMFTTAPDQVDKEDEDFQESNKMHSMNGFMYGNQPGLTMCKGDSVVWYLFSAGNEADVHGIYFSGNTYLWRGERRDTANLFPQTSLTLHMWPDTEGTFNVECLTTDHYTGGMKQKYTVNQCRRQSEDSTFYLGERTYYIAAVEVEWDYSPQREWEKELHHLQEQNVSNAFLDKGEFYIGSKYKKVVYRQYTDSTFRVPVERKAEEEHLGILGPQLHADVGDKVKIIFKNMATRPYSIHAHGVQTESSTVTPTLPGETLTYVWKIPERSGAGTEDSACIPWAYYSTVDQVKDLYSGLIGPLIVCRRPYLKVFNPRRKLEFALLFLVFDENESWYLDDNIKTYSDHPEKVNKDDEEFIESNKMHAINGRMFGNLQGLTMHVGDEVNWYLMGMGNEIDLHTVHFHGHSFQYKHRGVYSSDVFDIFPGTYQTLEMFPRTPGIWLLHCHVTDHIHAGMETTYTVLQNEDTKSG
- activity of the CP fraction separated from SDF ([1]; CP fraction eluted at about 40% acetonitrile from RP-HPLC Resource column): devoid of activity
